Reference: patent US20240270821A1, “GIP/GLP1/GCG TRI-RECEPTOR AGONISTS AND USES THEREOF” (priority 2023, published 2024)
Like-named read-outs stand apart in the source and are kept apart here. Starred links: 1 amine or outer side, 2 acyl side, 3 side chain; linkers in the order of their positions; H or OH if unused. Non-standard residues stand in square brackets, D forms with d. Residues, ends and D or L forms follow the SMILES beside them. Groups on a side chain read outwards from the residue. No end group written: not given here. *: point of attachment. C20 diacid = O=C(O)CCCCCCCCCCCCCCCCCCC(=O)*; C18 diacid = O=C(O)CCCCCCCCCCCCCCCCC(=O)*; αMePhe(2-F) = C[C@](N)(Cc1ccccc1F)C(=O)O; γGlu = O=C(O)[C@H](CCC(=O)[*:2])N[*:1]; αMe4Pal = C[C@](N)(Cc1ccncc1)C(=O)O; αMeY = C[C@](N)(Cc1ccc(O)cc1)C(=O)O; αMeF = C[C@](N)(Cc1ccccc1)C(=O)O; 4Pal = N[C@@H](Cc1ccncc1)C(=O)O; αMeL = CC(C)C[C@](C)(N)C(=O)O; αMeS = C[C@](N)(CO)C(=O)O; Orn = NCCC[C@H](N)C(=O)O; AEEA = NCCOCCOCC(=O)O; Aib = CC(C)(N)C(=O)O

How the values were obtained:
Assay type in all cases: cell-based
[1] = molecular target: T1, hGIPR (Homo sapiens, UniProt P48546); assay: Functional cAMP activity in the presence of 1% HSA; conditions: read-out: cAMP Rel EC50, hGIPR
T1 sequence (P48546 22-466): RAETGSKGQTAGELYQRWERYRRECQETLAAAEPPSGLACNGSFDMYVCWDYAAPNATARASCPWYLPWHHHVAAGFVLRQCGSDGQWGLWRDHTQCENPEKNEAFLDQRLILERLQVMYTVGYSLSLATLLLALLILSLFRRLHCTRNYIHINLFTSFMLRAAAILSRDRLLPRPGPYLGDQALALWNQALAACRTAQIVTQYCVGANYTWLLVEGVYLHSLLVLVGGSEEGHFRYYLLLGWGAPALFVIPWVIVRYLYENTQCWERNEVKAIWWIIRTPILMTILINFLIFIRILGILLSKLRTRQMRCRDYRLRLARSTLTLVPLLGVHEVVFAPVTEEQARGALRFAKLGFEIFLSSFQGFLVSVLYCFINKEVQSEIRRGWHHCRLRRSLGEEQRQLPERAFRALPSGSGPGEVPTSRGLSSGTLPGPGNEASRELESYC

[2] = molecular target: T2, hGLP-1R (Homo sapiens, UniProt P43220); assay: Functional cAMP activity in the presence of 1% HSA; conditions: read-out: cAMP Rel EC50, hGLP-1R
T2 sequence (P43220 24-463): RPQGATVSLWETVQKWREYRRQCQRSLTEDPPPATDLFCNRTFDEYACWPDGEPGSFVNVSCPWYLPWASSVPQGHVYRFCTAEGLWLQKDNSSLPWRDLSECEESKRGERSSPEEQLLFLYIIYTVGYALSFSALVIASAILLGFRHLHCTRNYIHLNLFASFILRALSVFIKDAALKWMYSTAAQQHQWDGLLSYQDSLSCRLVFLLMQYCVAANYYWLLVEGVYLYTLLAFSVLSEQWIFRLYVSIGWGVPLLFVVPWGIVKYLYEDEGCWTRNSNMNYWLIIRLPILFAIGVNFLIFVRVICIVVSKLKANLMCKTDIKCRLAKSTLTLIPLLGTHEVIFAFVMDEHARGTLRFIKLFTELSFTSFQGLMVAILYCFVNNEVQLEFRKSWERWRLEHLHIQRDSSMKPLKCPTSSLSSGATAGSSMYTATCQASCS

[3] = molecular target: human GcgR (Homo sapiens, UniProt P47871); assay: Functional cAMP activity in the presence of 1% HSA; conditions: read-out: cAMP Rel EC50, hGcgR
human GcgR, sequence (P47871 26-477): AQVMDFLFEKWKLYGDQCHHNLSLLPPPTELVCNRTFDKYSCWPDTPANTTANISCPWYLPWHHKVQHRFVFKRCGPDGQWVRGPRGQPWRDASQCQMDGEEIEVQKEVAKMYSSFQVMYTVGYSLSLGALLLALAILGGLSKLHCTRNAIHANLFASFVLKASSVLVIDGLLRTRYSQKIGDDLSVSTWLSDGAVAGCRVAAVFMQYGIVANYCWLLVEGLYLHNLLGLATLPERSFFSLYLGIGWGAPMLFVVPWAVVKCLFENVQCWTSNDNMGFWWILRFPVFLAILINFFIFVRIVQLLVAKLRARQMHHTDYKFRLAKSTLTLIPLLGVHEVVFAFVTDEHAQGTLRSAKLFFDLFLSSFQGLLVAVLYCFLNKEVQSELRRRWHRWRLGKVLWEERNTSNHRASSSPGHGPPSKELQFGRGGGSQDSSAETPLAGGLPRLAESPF

[4] = molecular target: T1, hGIPR; assay: Functional cAMP activation in the presence of 0.1% casein (no HSA); conditions: read-out: Relative cAMP EC50, hGIPR;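 as to Relative cAMP EC50, hGIPR: intracellular cAMP rise after 30 min at 37 °C read by HTRF against a standard curve, scaled between buffer alone (0%) and top control ligand concentration (100%), four-parameter fit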;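 as to Relative cAMP EC50, hGLP-1R: intracellular cAMP rise after 30 min at 37 °C read by HTRF, normalized between buffer only (0%) and maximal control ligand (100%), four-parameter variable-slope fit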;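 as to Relative cAMP EC50, hGcgR: intracellular cAMP rise after 30 min at 37 °C, read by HTRF against a cAMP standard curve, scaled from buffer only (0%) to maximal control ligand response (100%)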
[5] = molecular target: T2, hGLP-1R; assay: as above; conditions: read-out: Relative cAMP EC50, hGLP-1R
[6] = molecular target: hGcgR (Homo sapiens, UniProt P47871); assay: as above; conditions: read-out: Relative cAMP EC50, hGcgR;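 also: intracellular cAMP rise after 30 min at 37 °C, read by HTRF against a cAMP standard curve, scaled from buffer only (0%) to maximal control ligand response (100%)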
hGcgR, sequence (P47871 26-477): as above

[7] = in the presence of 0.1% casein (no HSA), geometric mean
[8] = HEK-293 clonal cell line, in the presence of 1% HSA, geometric mean of relative EC50
[9] = 0.1% casein, no HSA, geometric mean

Row | Compound | EC50 [1] | EC50 [2] | EC50 [3] | EC50 [4] | EC50 [5] | EC50 [6] | EC50 [4, 7] | EC50 [5, 7] | EC50 [6, 7] | EC50 [1, 8] | EC50 [2, 8] | EC50 [3, 8] | EC50 [4, 9] | EC50 [5, 9] | EC50 [6, 9]
1 | CC[C@H](C)[C@H](NC(=O)[C@H](Cc1ccccc1)NC(=O)[C@H](CCCN)NC(=O)C(C)(C)NC(=O)[C@H](CCC(N)=O)NC(=O)[C@H](C)NC(=O)[C@H](CCCCNC(=O)CC[C@H](NC(=O)CC[C@H](NC(=O)CCCCCCCCCCCCCCCCC(=O)O)C(=O)O)C(=O)O)NC(=O)[C@H](CCCN)NC(=O)[C@H](CC(=O)O)NC(=O)[C@H](CC(C)C)NC(=O)[C@](C)(CC(C)C)NC(=O)[C@@H](NC(=O)[C@](C)(CO)NC(=O)[C@H](Cc1ccncc1)NC(=O)[C@H](CC(=O)O)NC(=O)[C@H](CO)NC(=O)[C@@H](NC(=O)[C@](C)(Cc1ccccc1F)NC(=O)[C@@H](NC(=O)CNC(=O)[C@H](CCC(N)=O)NC(=O)C(C)(C)NC(=O)[C@@H](N)Cc1ccc(O)cc1)[C@@H](C)O)[C@@H](C)O)[C@@H](C)CC)C(=O)N[C@H](CCC(=O)O)C(=O)N[C@@](C)(Cc1ccc(O)cc1)C(=O)N[C@@H](CC(C)C)C(=O)N[C@@H](CCC(N)=O)C(=O)N[C@@H](CCC(=O)O)C(=O)NCC(=O)NCC(=O)N1CCC[C@H]1C(=O)N[C@@H](CO)C(=O)N[C@@H](CO)C(=O)NCC(=O)N[C@@H](CCC(=O)O)C(=O)N1CCC[C@H]1C(=O)N1CCC[C@H]1C(=O)N1CCC[C@H]1C(=O)N[C@@H](CCC(=O)O)C(N)=O [Example 439] (H-Y[Aib]QGT[αMePhe(2-F)]TSD[4Pal][αMeS]I[αMeL]LD[Orn]K([γGlu-γGlu-C18 diacid])AQ[Aib][Orn]FI[dE][αMeY]LQEGGPSSGEPPPE-NH2) | 14.6 nM | 15.1 nM | 165 nM | 0.0634 nM | 0.293 nM | 4.38 nM | – | – | – | – | – | – | – | – | –
2 | H-Y[Aib]QGTFTSD[4Pal]SQ[αMeL]LDKK([AEEA-γGlu-C18 diacid])AQ[αMe4Pal]AFIE[αMe4Pal]LIEGGPSSGAPPPSGS-NH2 [Example 948] | 22.9 nM | 304 nM | 537 nM | – | – | – | 0.17 nM | 2.67 nM | 2.89 nM | – | – | – | – | – | –
3 | Y[Aib]QGTFTSD[4Pal]SQ[αMeL]LDKK([AEEA-γGlu-C18 diacid])AQ[Aib]AFIEYLLE[dA]GPSSGAPPPSGS-NH2 [Example 820] | 17.5 nM | 299 nM | 1270 nM | – | – | – | 0.121 nM | 2.78 nM | 6.83 nM | – | – | – | – | – | –
4 | CC[C@H](C)[C@H](NC(=O)[C@H](Cc1ccccc1)NC(=O)[C@H](C)NC(=O)C(C)(C)NC(=O)[C@H](CCC(N)=O)NC(=O)[C@H](C)NC(=O)[C@H](CCCCNC(=O)COCCOCCNC(=O)CC[C@H](NC(=O)CCCCCCCCCCCCCCCCC(=O)O)C(=O)O)NC(=O)[C@H](CCCN)NC(=O)[C@H](CC(=O)O)NC(=O)[C@H](CC(C)C)NC(=O)[C@](C)(CC(C)C)NC(=O)[C@@H](NC(=O)[C@H](CO)NC(=O)[C@H](Cc1ccc(O)cc1)NC(=O)[C@H](CC(=O)O)NC(=O)[C@H](CO)NC(=O)[C@@H](NC(=O)[C@](C)(Cc1ccccc1)NC(=O)[C@@H](NC(=O)CNC(=O)[C@H](CCC(N)=O)NC(=O)C(C)(C)NC(=O)[C@@H](N)Cc1ccc(O)cc1)[C@@H](C)O)[C@@H](C)O)[C@@H](C)CC)C(=O)N[C@@H](CCC(=O)O)C(=O)N[C@@H](Cc1ccc(O)cc1)C(=O)N[C@@H](CC(C)C)C(=O)N[C@@H](CCC(=O)O)C(=O)N[C@@H](CCC(=O)O)C(=O)NCC(=O)NCC(=O)N1CCC[C@H]1C(=O)N[C@@H](CO)C(=O)N[C@@H](CO)C(=O)NCC(=O)N[C@@H](C)C(=O)N1CCC[C@H]1C(=O)N1CCC[C@H]1C(=O)N1CCC[C@H]1C(=O)N[C@@H](CCC(=O)O)C(N)=O [Example 397] (H-Y[Aib]QGT[αMeF]TSDYSI[αMeL]LD[Orn]K([AEEA-γGlu-C18 diacid])AQ[Aib]AFIEYLEEGGPSSGAPPPE-NH2) | 10.1 nM | 34.9 nM | 1110 nM | 0.0247 nM | 0.2 nM | 5.22 nM | – | – | – | – | – | – | – | – | –
5 | Y[Aib]QGT[αMePhe(2-F)]TSD[4Pal]SI[αMeL]LD[Orn]K([AEEA-γGlu-C18 diacid])AQ[αMe4Pal][Orn]FI[dE][αMeY]LIEGGPSSGAPPPEGGGE-NH2 [Example 758] | 1.59 nM | 31.3 nM | 388 nM | 0.0212 nM | 0.195 nM | 3.99 nM | – | – | – | – | – | – | – | – | –
6 | H-Y[Aib]QGTFTSDFS[Orn][αMeL]LD[Orn]K([γGlu-γGlu-C18 diacid])AQ[Aib]AFIE[αMe4Pal]LLEGGPSSGAPPPGGSEE-NH2 [Example 1050] | – | – | – | – | – | – | 0.152 nM | 7.65 nM | 6.8 nM | 68.5 nM | 1240 nM | 2040 nM | – | – | –
7 | H-Y[Aib]QGT[αMePhe(2-F)]TSDYSILLDKAAQK([AEEA-γGlu-C20 diacid])[Orn]FIEYLIEGGPSSGEPPPSEG-NH2 [Example 306] | 95.3 nM | 126 nM | 2820 nM | – | – | – | 0.142 nM | 0.335 nM | 5.8 nM | – | – | – | – | – | –
8 | CC[C@H](C)[C@H](NC(=O)[C@H](Cc1ccccc1)NC(=O)[C@H](C)NC(=O)C(C)(C)NC(=O)[C@H](CCC(N)=O)NC(=O)[C@H](C)NC(=O)[C@H](CCCCNC(=O)COCCOCCNC(=O)CC[C@H](NC(=O)CCCCCCCCCCCCCCCCC(=O)O)C(=O)O)NC(=O)[C@H](CCCCN)NC(=O)[C@H](CC(=O)O)NC(=O)[C@H](CC(C)C)NC(=O)[C@](C)(CC(C)C)NC(=O)[C@@H](NC(=O)[C@H](CO)NC(=O)[C@H](Cc1ccncc1)NC(=O)[C@H](CC(=O)O)NC(=O)[C@H](CO)NC(=O)[C@@H](NC(=O)[C@](C)(Cc1ccccc1F)NC(=O)[C@@H](NC(=O)CNC(=O)[C@H](CCC(N)=O)NC(=O)C(C)(C)NC(=O)[C@@H](N)Cc1ccc(O)cc1)[C@@H](C)O)[C@@H](C)O)[C@@H](C)CC)C(=O)N[C@@H](CCC(=O)O)C(=O)N[C@@H](Cc1ccc(O)cc1)C(=O)N[C@@H](CC(C)C)C(=O)N[C@@H](CCC(=O)O)C(=O)N[C@@H](CCC(=O)O)C(=O)NCC(=O)NCC(=O)N1CCC[C@H]1C(=O)N[C@@H](CO)C(=O)N[C@@H](CO)C(=O)NCC(=O)N[C@@H](CCC(=O)O)C(=O)N1CCC[C@H]1C(=O)N1CCC[C@H]1C(=O)N1CCC[C@H]1C(=O)N[C@@H](CCC(=O)O)C(N)=O [Example 487] (H-Y[Aib]QGT[αMePhe(2-F)]TSD[4Pal]SI[αMeL]LDKK([AEEA-γGlu-C18 diacid])AQ[Aib]AFIEYLEEGGPSSGEPPPE-NH2) | 2.26 nM | 27.7 nM | 477 nM | 0.0286 nM | 0.639 nM | 5.36 nM | – | – | – | – | – | – | – | – | –
9 | H-Y[Aib]QGT[αMePhe(2-F)]TSD[4Pal][αMeS]I[αMeL]LD[Orn]K([AEEA-γGlu-C18 diacid])AQ[αMe4Pal]EFI[dE][αMeY]LIEGGPSSGAPPPEGGGE-NH2 [Example 759] | 1.05 nM | 34.8 nM | 223 nM | 0.00676 nM | 0.262 nM | 1.29 nM | – | – | – | – | – | – | – | – | –
10 | H-Y[Aib]QGT[αMePhe(2-F)]TSD[4Pal]SILLDKK([γGlu-γGlu-C18 diacid])AQ[Aib]AFIE[αMeY]LEEGGPSSGAPPPSGTE-NH2 [Example 551] | 1.88 nM | 38.2 nM | 210 nM | 0.0173 nM | 0.303 nM | 1.74 nM | – | – | – | – | – | – | – | – | –
11 | H-Y[Aib]QGT[αMePhe(2-F)]TSD[4Pal][αMeS]I[αMeL]LD[Orn]K([γGlu-γGlu-C18 diacid])AQ[αMe4Pal]EFI[dE][αMeY]LIEGGPPS[Aib][Orn]PPP[Orn]SE-NH2 [Example 1228] | 0.522 nM | 39.1 nM | 185 nM | – | – | – | – | – | – | – | – | – | 0.0067 nM | 0.379 nM | 1.98 nM
